Experimental data taken from patent US20240417408A1, “SMALL MOLECULE INHIBITORS OF KRAS G12C MUTANT” (MERCK SHARP & DOHME CORP., priority 2021, published 2024).

Tests used:
[1] = target: T1, Recombinant KRAS G12C mutant protein (amino acids 1-169, SEQ ID NO: 1) (Homo sapiens, UniProt P01116, G12C); test: Test Example 1: inhibitory activity on KRAS G12C nucleotide (GDP-GTP) exchange reaction in vitro; format: biochemical; details: BODIPY FL GDP-bound KRAS G12C incubated with compound at 25° C. for 1 hour, then SOS1 and GMPPNP, read-out: GNE IC50
T1 construct: His6 (N); TEV protease site (ENLYFQG; named from own knowledge) (N); made in house; host or cells: E. coli
Protocol: Test Example 1: Evaluation of inhibitory activity of compounds on KRAS G12C nucleotide (GDP-GTP) exchange reaction in vitro
Recombinant KRAS G12C mutant protein (amino acids 1-169, SEQ ID NO: 1) and cleaved recombinant SOS1 (amino acids 564-1049, SEQ ID NO:2) proteins were expressed in E. coli and purified by affinity chromatography.
To prepare BODIPY FL GDP-bound KRAS G12C protein, 50 μM KRAS G12C protein was incubated with 0.5 mM BODIPY FL GDP in a loading buffer (20 mM Tris-HCl (pH 7.5), 50 mM NaCl, 1 mM DTT and 2.5 mM EDTA) for 1 hour on ice. After the incubation, MgCl2 was added to a final concentration of 10 mM, followed by incubation at room temperature for 30 minutes. The mixture was allowed to pass through a NAP-5 column to remove free nucleotides and purified BODIPY FL GDP-bound KRAS G12C protein was used for compound evaluation.
For the measurement of the inhibitory activity of compounds on GDP-GTP exchange rate of recombinant KRAS G12C, BODIPY FL GDP-bound KRAS G12C protein was incubated with various concentrations of compound in a reaction buffer (20 mM Tris-HCl (pH 7.5), 100 mM NaCl, 1 mM MgCl2, 2 mM DTT, 0.1% Tween 20) at 25° C. for 1 hour. After the incubation, recombinant SOS1 and Guanosine-5′-[(β,γ)-imido]triphosphate, Tetralithium salt (GMPPNP) (Jena Bioscience GmbH) were added and incubated at room temperature for 30 minutes to proceed SOS1-dependent GDP-GTP exchange reaction on KRAS G12C. Replacement of BODIPY FL GDP by GMPPNP was measured by calculating the ratio of fluorescence intensities of BODIPY FL before and after the exchange reaction. Inhibition % was calculated by setting the fluorescence ratio from the reaction without test compound (DMSO control) and the fluorescence ratio from the reaction without SOS1 and GMPPNP as 0% and 100% inhibition, respectively. IC50 values were calculated from dose titration curve using curve fitting by XLfit software (IDBS).

[2] = target: T2, interaction between KRAS G12C and cRAF-RBD (Homo sapiens, UniProt P01116, G12C); test: Test Example 2: inhibitory activity on interaction between KRAS G12C and cRAF (Alpha technology); format: binding; details: GMPPNP-bound KRAS G12C incubated with compound at 25° C. for 1 hour, then cRAF-RBD
T2 construct: TEV protease site (ENLYFQG); made in house; host or cells: E. coli
Protocol: Test Example 2: Evaluation of Inhibitory Activity of Compounds on Interaction Between KRAS G12C and cRAF (In Vitro)
Interaction between recombinant KRAS G12C mutant protein (SEQ ID NO: 1) and cRAF RAS-binding domain (cRAF-RBD, amino acids 50-132, Jena Biosciences GmbH) was measured using Alpha technology (PerkinElmer Inc.).
Recombinant KRAS G12C protein with an N-terminal His-tag was expressed in E. coli and purified by affinity chromatography. To prepare GTP-bound form and GDP-bound form of KRAS G12C protein, 50 μM KRAS G12C protein was incubated with 1 mM GMPPNP (Jena Bioscience GmbH) and 1 mM GDP, respectively, in a loading buffer (20 mM Tris-HCl (pH 7.5), 50 mM NaCl, 1 mM DTT and 2.5 mM EDTA) for 1 hour on ice. After the incubation, MgCl2 was added to a final concentration of 10 mM, followed by incubation at room temperature for 30 minutes. The mixture was allowed to pass through a NAP-5 column to remove free nucleotides and purified, and the resultant nucleotide-bound KRAS G12C protein was used for compound evaluation.
For the measurement of the inhibitory activity of compounds on interaction between KRAS G12C and cRAF-RBD, GMPPNP-bound KRAS G12C protein was incubated with various concentrations of compound in a reaction buffer (20 mM Tris-HCl (pH 7.5), 100 mM NaCl, 1 mM MgCl2, 1 mM TCEP, 0.1% Tween 20) at 25° C. for 1 hour. After the incubation, recombinant cRAF-RBD and Alpha detection reagents were added and incubated at room temperature for 1.5 hours for binding. Interaction of KRAS G12C and cRAF-RBD was monitored by measuring Alpha signal. Inhibition % was calculated using the signal from the reaction without test compound (DMSO control) as 0% inhibition and the signal from the reaction using GDP-bound KRAS G12C in place of GMPPNP-bound KRAS G12C as 100% inhibition. IC50 values were calculated from dose titration curve using curve fitting by XLfit software (IDBS).

[3] = system: MIA PaCa-2 cells; test: Test Example 3: growth inhibition activity on KRAS-G12C mutant cell line (MIA PaCa-2); format: cell-based; details: Homo sapiens, 72 h, MIA PaCa-2, 3-day culture, CellTiter-Glo 3D, read-out: CTX MiaPaCa IC50
Protocol: Test Example 3: Assay of Growth Inhibition Activity on KRAS-G12C Mutant Cell Line (MIA PaCa-2) (In Vitro)
MIA PaCa-2 cells (provided by Sumitomo Dainippon Pharma Co., Ltd.), which are a KRAS-G12C mutant human pancreas cancer cell line, were suspended in a 10% fetal bovine serum-containing RPMI1640 medium (manufactured by Fujifilm Wako Pure Chemical Corporation.). The cell suspension was seeded into each well of a 384-well U bottom microplate and cultured in an incubator containing 5% CO2 gas at 37° C. for 1 day. The compounds obtained in the Examples section were used as test compounds and were dissolved in DMSO, respectively, and each test compound was diluted with DMSO to give a concentration 500 times the final concentration. The resultant solution of the test compound in DMSO was diluted with the medium used for suspending cells and added to each well of the cell-culture plate to give a DMSO final concentration of 0.2%, followed by culture in an incubator containing 5% CO2 gas at 37° C. for another 3 days. The cell count after 3-day culture in the presence of the test compound was measured using CellTiter-Glo 3D Reagent (manufactured by Promega Corporation). To all cells were added with CellTiter-Glo 3D Reagent and mixed for 10 minutes. 30 minutes after mixing, luminescence was measured by a plate reader. The growth inhibition rate was calculated from the following equation, and the concentration of the test compound at which 50% inhibition was achieved (IC50 (nM)) was determined.
[formula] • T: the emission intensity in a well into which a test compound was added. • C: the emission intensity in a well into which a test compound was not added.

T1 sequence (P01116 with tags, fused parts or gaps isoform P01116-2 G12C): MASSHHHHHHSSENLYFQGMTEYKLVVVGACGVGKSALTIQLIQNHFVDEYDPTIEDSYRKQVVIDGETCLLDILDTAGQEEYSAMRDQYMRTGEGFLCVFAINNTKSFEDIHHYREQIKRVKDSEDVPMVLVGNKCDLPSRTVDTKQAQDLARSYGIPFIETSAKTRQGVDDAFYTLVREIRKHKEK
T2 sequence (P01116 with tags, fused parts or gaps isoform P01116-2 G12C): as above

| IC50 [1] [nM] | IC50 [2] [nM] | IC50 [3] [nM] | Compound |
| --- | --- | --- | --- |
| 2.63 | 2820 | 177 | COC1CCN(C/C=C/C(=O)N2CCN(c3nc(OC[C@@H]4CCCN4C)nc4c3COC(c3cccc5cccc(Br)c35)C4)C[C@@H]2CC#N)CC1 (stereo partly drawn) [Example 5, 2-((2S)-4-(7-(8-bromonaph-thalen-1-yl)-2-(((S)-1-meth-ylpyrrolidin-2-yl)methoxy)-7,8-dihydro-5H-pyrano[4,3-d]pyrimidin-4-yl)-1-((E)-4-(4-methoxypiperidin-1-yl)-but-2-enoyl)piperazin-2-yl)-acetonitrile] |
| 338 | > 6670 | > 10000 | C#Cc1cccc2cc(O)cc(C3Cc4nc(OC5CN(S(C)(=O)=O)C5)nc(N5CCN(C(=O)/C=C/CN6CCC(OC)CC6)[C@@H](CC#N)C5)c4CO3)c12 (stereo partly drawn) [Example 16, 2-((2S)-4-(7-(8-ethynyl-3-hydroxynaphthalen-1-yl)-2-((1-(methylsulfonyl)azeti-din-3-yl)oxy)-7,8-dihydro-5H-pyrano[4,3-d]pyrimidin-4-yl)-1-((E)-4-(4-methoxy-piperidin-1-yl)but-2-enoyl)-piperazin-2-yl)acetonitrile] |
| 7.19 | 9580 | 333 | COC1CCN(C/C=C/C(=O)N2CCN(c3nc(OC[C@@H]4CCCN4C)nc4c3COC(c3cccc5ccccc35)C4)C[C@@H]2CC#N)CC1 (stereo partly drawn) [Example 4, 2-((2S)-1-((E)-4-(4-methoxy-piperidin-1-yl)but-2-enoyl)-4-(2-(((S)-1-methylpyrroli-din-2-yl)methoxy)-7-(naph-thalen-1-yl)-7,8-dihydro-5H-pyrano[4,3-d]pyrimidin-4-yl)piperazin-2-yl)acetonitrile] |
| 287 | > 6670 | 1130 | COC1CCN(C/C=C/C(=O)N2CCN(c3nc(OCC4(CN5CCOCC5)CC4)nc4c3COC3(CCc5cccc(Br)c53)C4)C[C@@H]2CC#N)CC1 (stereo partly drawn) [Example 21, 2-((2S)-4-(7-bromo-2′-((1-(morpholinomethyl)cyclopropyl)methoxy)-2,3,5′,8′-tetrahydrospiro[indene-1,7′-pyrano[4,3-d]pyrimidin]-4′-yl)-1-((E)-4-(4-methoxypiperidin-1-yl)but-2-enoyl)piperazin-2-yl)acetonitrile] |
| 0.88 | 50.6 | 4.36 | C#Cc1cccc2cc(O)cc([C@@H]3Cc4nc(OC[C@@H]5CCCN5C)nc(N5CCN(C(=O)/C=C/CN6CCC(OC)CC6)[C@@H](CC#N)C5)c4CO3)c12 [Example 7, 2-((S)-4-((S)-7-(8-ethynyl-3-hydroxynaphthalen-1-yl)-2-(((S)-1-methylpyrrolidin-2-yl)methoxy)-7,8-dihydro-5H-pyrano[4,3-d]pyrimidin-4-yl)-1-((E)-4-(4-methoxy-piperidin-1-yl)but-2-enoyl)-piperazin-2-yl)acetonitrile] |
| 0.81 | 182 | 21.7 | CO[C@H]1CC[C@H](NC/C=C/C(=O)N2CCN(c3nc(OC[C@@H]4CCCN4C)nc4c3CO[C@H](c3cc(O)cc5cccc(Br)c35)C4)C[C@@H]2CC#N)CC1 [Example 11, 2-((S)-4-((S)-7-(8-bromo-3-hydroxynaphthalen-1-yl)-2-(((S)-1-methylpyrrolidin-2-yl)methoxy)-7,8-dihydro-5H-pyrano[4,3-d]pyrimidin-4-yl)-1-((E)-4-(((1r,4S)-4-methoxycyclohexyl)amino)-but-2-enoyl)piperazin-2-yl)-acetonitrile] |
| 174 | > 6670 | 3350 | COC1CCN(C/C=C/C(=O)N2CCN(c3nc(OCC4(CN5CCOCC5)CC4)nc4c3COC3(Cc5ccccc5C3)C4)C[C@@H]2CC#N)CC1 [Example 20, (S,E)-2-(1-(4-(4-methoxypiperidin-1-yl)but-2-enoyl)-4-(2′-((1-(morpholinomethyl)cyclopropyl)methoxy)-1,3,5′,8′-tetrahydrospiro[indene-2,7′-pyrano[4,3-d]pyrimidin]-4′-yl)piperazin-2-yl)acetonitrile] |
| 6.7 | 309 | 170 | C#Cc1cccc2cccc([C@@H]3Cc4nc(OCC5(CN6CCOCC6)CC5)nc(N5CCN(C(=O)/C=C/CN6CCC(OC)CC6)[C@@H](CC#N)C5)c4CO3)c12 [Example 12, 2-((S)-4-((S)-7-(8-ethynyl-naphthalen-1-yl)-2-((1-(morpholinomethyl)cyclo-propyl)methoxy)-7,8-dihydro-5H-pyrano[4,3-d]pyrimidin-4-yl)-1-((E)-4-(4-methoxypiperidin-1-yl)-but-2-enoyl)piperazin-2-yl)-acetonitrile] |
| 3.53 | 43700 | 111 | CO[C@H]1CC[C@H](NC/C=C/C(=O)N2CCN(c3nc(OC[C@@H]4CCCN4C)nc4c3COC(c3cccc5ccccc35)C4)C[C@@H]2CC#N)CC1 (stereo partly drawn) [Example 2, 2-((2S)-1-((E)-4-(((1r,4S)-4-methoxycyclohexyl)amino)-but-2-enoyl)-4-(2-(((S)-1-methylpyrrolidin-2-yl)meth-oxy)-7-(naphthalen-1-yl)-7,8-dihydro-5H-pyrano[4,3-d]pyrimidin-4-yl)piperazin-2-yl)acetonitrile] |
| 1.27 | 133 | 40.4 | C#Cc1cccc2cc(O)cc(C3Cc4nc(OC[C@@H]5CCCN5C)nc(N5CCN(C(=O)/C=C/CN[C@H]6CC[C@H](OC)CC6)[C@@H](CC#N)C5)c4CO3)c12 (stereo partly drawn) [Example 9, 2-((2S)-4-(7-(8-ethynyl-3-hydroxynaphthalen-1-yl)-2-(((S)-1-methylpyrrolidin-2-yl)methoxy)-7,8-dihydro-5H-pyrano[4,3-d]pyrimidin-4-yl)-1-((E)-4-(((1r,4S)-4-methoxycyclohexyl)amino)-but-2-enoyl)piperazin-2-yl)-acetonitrile] |
